According to US20070072209A1, “Methods of treatment and diagnosis of Kaposi's sarcoma (KS) and KS related diseases” (priority 2005, published 2007):

How the values were obtained:
[1] = system: KSHV-infected DMVEC; conditions: cited from earlier work
[2] = system: Uninfected DMVEC; conditions: cited from earlier work
[3] = system: KSHV-infected DMVEC; conditions: cited from earlier work; remark: listed apart in the source
[4] = system: KSHV-infected DMVEC; experiment: PMO antisense inhibition of KSHV-induced spindle cell and foci formation (Example 3); format: cell-based, human; conditions: for Extent of PMO-induced Inhibition of Spindle Cell Formation: KSHV-infected DMVEC loaded with gene-specific PMO antisense + EPEI; for Phenotype Inhibition (inhibition of spindle cell formation) / KSHV-induced spindle cell / foci formation (in words): KSHV-infected DMVEC; for Phenotype Inhibition (inhibition of spindle cell formation): gene-specific PMO antisense; for KSHV-induced spindle cell / foci formation (in words): PMO antisense, c-Kit: 1.25 nmol PMO + 2.5 μl EPEI per 35 mm dish
Source text: Antisense Gene Silencing using PMOs. […] Silencing of such genes precluded progression into the transformed phenotype when silencing occurred prior to transformation, or induced reversion to the normal state when silencing occurred after induction of the transformed state (see TABLE 2 below).
Introduction of antisense PMO into KSHV-infected DMVEC. Antisense PMO molecules, for delivery purposes, are typically converted to a paired duplex together with a partially complementary cDNA oligonucleotide in the weakly basic delivery reagent ethoxylated polyethylenimine (EPEI) (Summerton, supra). The anionic complex binds to the cell surface, is taken up by endocytosis and eventually released into the cytosol. A protocol for optimum uptake of antisense PMO in immortalized DMVEC was developed using a modification of the EPEI method. Briefly, uninfected, immortalized DMVECs were incubated for 3 hours at 37° C. with 0.6 nmol/well FITC-PMO complexed with EPEI according to the manufacturer's instructions (GeneTools, LLC, One Summerton Way, Philomath, Oreg. 97370) (e.g., 1.25 nMol oligomer with 2.5 μl EPEI reagent per 35 mm dish, allowing for sufficient antisense uptake without non-specific EPEI-induced toxicity). The PMOs were labeled with FITC to allow for monitoring of loading efficiency by fluorescence microscopy.
Specifically, DMVEC were infected with KSHV, plated in 35 mm dishes and allowed to grow to about 90% confluence. For treatment, KSHV-infected cells were treated with the anti-c-Kit PMO-antisense oligomer-EPEI delivery reagent complex and incubated for 3 hours at 37° C. in serum-free medium to allow for oligomer uptake. A titration experiment testing a range of different oligomer/EPEI volumes was used to determine that loading 1.25 nmol oligomer with 2.5 μl EPEI reagent per 35 mm dish allowed efficient antisense uptake without non-specific EPEI-induced toxicity. Control (mock-treated) DMVEC cultures were loaded with EPEI reagent and sterile water or sterile water alone. Upon removal of the oligomer-EPEI solution, cell monolayers were rinsed in serum-free medium fed with complete medium and examined daily for one week by phase microscopy for evidence of phenotypic change.

[5] = system: KSHV-infected DMVEC; experiment: XTT proliferation assay of PMO-loaded KSHV-infected DMVEC (Example 3); format: cell-based, human; conditions: PMO antisense silencing
Method: Proliferation assays, and loading of cells with PMOs. Proliferation of KSHV-infected DMVEC was quantified using an XTT (2,3-bis-(2-methoxy-4-nitro-5-sulfophenyl)-2H-tetrazolium-5-carboxanilide, disodium salt)-based assay. KSHV-infected cells were added to Primaria 96-well trays (Becton Dickinson) at 1×10^4 or 5×10^4 cells/well. XTT (Roche, Molecular Biochemicals, Indianapolis, Ind.) was added 48 hours later according to the manufacturer's instructions. Absorbance was read after 4 to 6 hours on a microplate reader.
Briefly, cells were plated in 96-well trays at a density approaching confluence (5×10^4 cells per well) in 100 μl of complete medium. PMOs were loaded the following day in a total of 100 μl (0.5 μl PMO, 0.5 μl EPEI, 49 μl H2O and 50 μl serum free medium) with reagent mixing as described by the manufacturer (GeneTools). Controls included a FITC PMO control oligonucleotide, EPEI only or H2O only. Each variable was performed in quadruplicate. Fresh complete medium was replaced 4 hours after loading. Cells were cultured for 4 days to allow for multi-layered cell growth post-confluence in the absence of any growth inhibition. XTT was added on day 4 of culture and the absorbance read 4 hrs later on a microplate reader. Cell proliferation (growth) values are given as percentage inhibition values, relative to cells without PMO, which are adjusted to 100%.

[6] = system: KSHV-infected DMVEC; experiment: Morpholino treatment and focus inhibition assay (Example 5); format: cell-based, human; conditions: for Foci/spindle morpholigical inhibition: PMO-treated KSHV-infected DMVEC vs control PMO, repeated three times
Method: Morpholino Treatment and Focus Inhibition Assay. Phosphorodiamidate morpholino antisense oligonucleotides (PMO-AS) were designed and synthesized by Gene Tools LLC (Philomath, Oreg.) as a Special Delivery formulation, which pairs the morpholino with a partially complementary DNA oligo. A weakly basic delivery agent, Ethoxylated Polyethlyenimine (EPEI) is then used to deliver the anionic morpholino/DNA duplex into the cytosol. PMO-AS were received as sterile, lyophilized solids ([…]) that were solubilized in sterile water to obtain 0.5 mM stock solutions. To load a 35 mm dish of DMVEC at 90% confluence, 5 microl of stock solution was mixed with 5 microl of EPEI delivery solution in 590 μl H20 for 20 minutes at room temperature, and then mixed with 1.5 ml of serum-free RPMI medium. Endothelial growth media was removed from DMVEC, and replaced with the PMO-AS:EPEI:RPMI delivery solution for 3 hours in a 37° C. incubator. After incubation, cells were rinsed, complete endothelial growth medium was added and cells were cultured for up to 10 days without sub-culture, with media replacement every 48-72 hours. This protocol allows for the characteristic post-confluent growth and development of multi-layered spindle-cell aggregates (foci) in KSHV-infected cultures. Cells were monitored daily under the phase microscope to evaluate PMO-AS-inhibition of the development of these foci. At the conclusion of an assay, cells were fixed in 2% paraformaldehyde and stained with a MAB against CD31 (Dako; 1:100) followed by a goat-anti-mouse FITC second conjugate. Junctional staining of cells with CD31 accentuated the disorganized multi-layered nature of the spindle cell aggregates as composed to the flat, organized profile of contact-inhibited cells.
For these assays, KSHV-infected DMVEC monolayers were cultured to 90% confluence and then loaded with each PMO-AS, or maintained as unloaded controls. Cultures were observed daily until control cultures had developed prominent multi-layered aggregates of spindle cells. Typically this took 5-10 days with some variation between replicate experiments. Each experiment was performed at least three times and was performed with mock-infected as well as KSHV-infected DMVEC. As expected, mock-infected DMVEC maintained a quiescent monolayer at confluence, and PMO-AS treatment of uninfected cells occurred without any adverse effect. This observation allowed verification that none of the gene knockdown treatments induced non-specific toxicity in DMVEC. The majority of tested PMO-AS had no effect on the ability of KSHV-infected DMVEC to grow post-confluence and form disorganized, multi-layered foci (TABLE 2).

Compound | nonspecific cytotoxicity (cell viability controls) [1] | proliferative response to exogenous SCF [1] | effect on cell morphology or viability [2] | focus formation ([3]; KSHV-infected DMVEC) | phenotype after removal of drug ([3]; even after exposure of cells to a 10 μM dose) | Extent of PMO-induced Inhibition of Spindle Cell Formation [4] | Phenotype Inhibition (inhibition of spindle cell formation) [4] | KSHV-induced spindle cell / foci formation (in words) [4] | inhibition of KSHV-induced cellular proliferation (in words) [5] | Foci/spindle morpholigical inhibition [6] | effect on phenotype (foci, spindle shape) in focus-inhibition assay (in words) ([6]; PMO-AS, KSHV-infected DMVEC, 5-10 days)
Cc1ccc(NC(=O)c2ccc(CN3CCN(C)CC3)cc2)cc1Nc1nccc(-c2cccnc2)n1 [STI 571] | not due to nonspecific cytotoxicity | inhibited | has effect on cell morphology or viability | focus formation is inhibited | regeneration of the transformed phenotype |  |  |  |  |  | 
ANGPTL2: PMO antisense to ANGPTL2, AGCATGTCACGCACAGTGGCCTCAT (SEQ ID NO:33) (all phosphorodiamidate morpholino (PMO); delivered paired with partially complementary DNA oligo (Special Delivery)) |  |  |  |  |  | intermediate | Intermediate | intermediate inhibitory effects |  |  | 
IFACTOR: PMO antisense to IFACTOR, AGCTTCATGTTGGAGGTGTTCG (SEQ ID NO:22) (all phosphorodiamidate morpholino (PMO); delivered paired with partially complementary DNA oligo (Special Delivery)) |  |  |  |  |  | none | None | little or no affect | relatively little or no significant inhibition |  | 
IGFBP2: PMO antisense to IGFBP2, GGCAGCCCACTCTCTCGGCAGCATG (SEQ ID NO:16) (all phosphorodiamidate morpholino (PMO); delivered paired with partially complementary DNA oligo (Special Delivery)) |  |  |  |  |  | full | Full | fully reversed spindle cell formation | substantial inhibition | Full | 
INSR: PMO antisense to INSR, GGGTCTCCTCGGATCAGGCGCG (SEQ ID NO:20) (all phosphorodiamidate morpholino (PMO); delivered paired with partially complementary DNA oligo (Special Delivery)) |  |  |  |  |  | intermediate | Intermediate | intermediate inhibitory effects | substantial inhibition | Intermediate | marginal but reproducible effect on phenotype
K1AA0367: PMO antisense to KIAA0367, GTCAGTTTACTCATGTCATCTATTG (SEQ ID NO:18) (all phosphorodiamidate morpholino (PMO); delivered paired with partially complementary DNA oligo (Special Delivery)) |  |  |  |  |  | intermediate | Intermediate | intermediate inhibitory effects | substantial inhibition |  | 
LMO2: PMO antisense to LMO2, GCCGAGGACATTGGGGAGGGAGGCG (SEQ ID NO:23) (all phosphorodiamidate morpholino (PMO); delivered paired with partially complementary DNA oligo (Special Delivery, EPEI)) |  |  |  |  |  | none |  | little or no affect |  | None | 
LOX: PMO antisense to LOX, GGAGCACGGTCCAGGCGAAGCGCAT (SEQ ID NO:31) (all phosphorodiamidate morpholino (PMO); delivered paired with partially complementary DNA oligo (Special Delivery, EPEI)) |  |  |  |  |  | full | Full | fully reversed spindle cell formation |  |  | 
MFAP3: PMO antisense to MFAP3, TGAATAAGCAACAATGTAGCTTCAT (SEQ ID NO:24) (all phosphorodiamidate morpholino (PMO); delivered paired with partially complementary DNA oligo (Special Delivery, EPEI)) |  |  |  |  |  | none | no and None | little or no affect | relatively little or no significant inhibition | None | 
NOV: PMO antisense to NOV, AGCTCGTGCTCTGCACACTCTGCAT (SEQ ID NO:32) (all phosphorodiamidate morpholino (PMO); delivered paired with partially complementary DNA oligo (Special Delivery, EPEI)) |  |  |  |  |  | full | Full | fully reversed spindle cell formation |  |  | 
Osteopontin |  |  |  |  |  |  | None |  | relatively little or no significant inhibition | None | 
